# How the values were obtained:
# [1] = test system: 253J-BV cell (bladder cancer cell); assay: morphological changes by light microscopy; format: cell-based, human; settings: 1-10 μM, 48 hr
# Experimental: Bladder cancer cells grown in 6 well-plate were treated with 10 μM LY255283, 1 uM U75302 for 48 hr. Cells were then viewed using light microscopy (×100). SV-HUC-1 cell (normal bladder cell) and 253J-BV cell (bladder cancer cell) were treated with different concentrations (1-10 μM) of LY255283 (BLT2 specific antagonist), U75302 (BLT1 specific antagonist) for 48 hr. […] But normal bladder cell line was not effect on morphological change treated with BLT antagonists.
# LNCaP cells [2] = assay: Hoechst 33258 staining; format: cell-based, human; settings: 5 μM, 36 hr
# Experimental: Prostate cancer cells grown in 6-well cluster dishes were stimulated with 5 μM LY255283 for 36 hr in serum free RPMI 1640. The cells were fixed for 10 min with 4% formaldehyde and stained with Hoechst 33258 (50 μg/ml) (Sigma) for 10 min at 37° C. and observed under fluorescence microscopy (Carl Zeiss).
# LNCaP cells [3] = assay: MTT assay, cell viability; format: cell-based, human; settings: increasing concentration, 48 hr, serum free RPMI 1640
# Experimental: The effect of LY255283, BLT2 antagonist, on cell viability was examined by MTT assay. PWR-1E cells were seeded at a density of 1.0×10^4 cells/well and LNCaP cells were seeded at a density of 1.5×10^4 cells/well in 96-well culture dishes. After 36 hr, the medium was replaced with serum free RPMI 1640 and cells were stimulated with DMSO or LY255283 of increasing concentration. MTT (1 mg/mu) was added at 48 hr after LY255283 treatment and after 4 hr of further incubation the medium was replaced with DMSO. Then cells were incubated at room temperature for 10 min. The spectrophotometric absorbance of the samples was determined by using Ultra Multifunctional Microplate Reader at 540 nm. LNCaP cells and PWR-1E cells were stimulated with LY255283 of various concentration in serum free RPM11640.
# [4] = test system: MDA-MB-231 breast cancer cells; assay: Matrigel invasion assay; format: cell-based, human; settings: antibody 20 μg/ml, LY255283 10 μM, 48 h
# Experimental: LF-BLT2 IgG Ab were also tested to determine if they had anti-BLT2-neutralizing effect in a cancer cell invasion assay. The migration of MDA-MB-231 breast cancer cells through Matrigel matrix gel in the presence of anti-LF-BLT2 was examined. The upper chamber of transwells (8.0-μm membrane pores; Costar) were coated with 2.5 μg/ml Matrigel matrix gel (BD Biosciences) and incubated at 37° C. for 2 hr. A total of 5×10^4 cells in 100 μl of medium with 0.5% FBS were added to the upper chamber and allowed to migrate toward the bottom chamber, which contained medium with 10% FBS as a chemoattractant. MDA-MB-231 cells were stopped at 48 hr. Cells on the top surface of the membranes were removed using a cotton swab, and cells on the underside were fixed in methanol and stained with hematoxylin and eosin (H&E).
# eosinophil = settings: 10 μM; cited from earlier work
# Panc-1 cells = assay: MTT assay, cell viability; format: cell-based, human; settings: 2.5, 5 and 10 μM, 48 h
# Experimental: (§1) To investigate the effect of the selective BLT2 antagonist LY255283 on pancreatic cancer cell proliferation and survival, cell viability was determined by MTT assay after Panc-1 and AsPC-1 cells were exposed to LY255283 for 48 hr.
# (§2) Two human pancreatic cancer cell lines were used: Panc-1 and AsPC-1. Panc-1 cells were grown in DMEM, and AsPC-1 cells were grown in RPMl 1640.
# (§3) Cells were plated in 96-well plates at a concentration of 10,000 cells/well. After incubation for 24 h, cells were serum-starved for 3 h, and then various concentrations (2.5 μM, 5 μM and 10 μM) of LY255283 were added. At the end of experiments, 25μ! of a 5 mg/ml MTT solution, diluted in PBS, was added into the 96-well plates. The plates were incubated at 37° C. in 5% CO2 atmosphere for 3 hr, allowing viable cells to reduce the yellow tetrazolium salt (MTT) into dark blue formazan crystals. At the end of the 3 h incubation, the MTT solution was removed and 100 μl of dimethyl sulfoxide was added to dissolve the formazan crystals. To ensure complete dissolution of the formazan crystals, the plates were vortexed gently at low speed for 10 min. The absorbance in individual wells was determined at 540 nm by a microplate reader.
# AsPC-1 cells = assay: MTT assay, cell viability; format: cell-based, human; settings: 2.5, 5 and 10 μM, 48 h
# Experimental: as §1, §2, §3
structure (smiles),measurement,setting,value
"CCc1cc(C(C)=O)c(O)cc1OCCCCCC(C)(C)c1nnn[nH]1 [LY255283, 1-[5-ethyl-2-hydroxy-4-[[6-methyl-6-(1H-tetrazol-5-yl)heptyl]oxy]phenyl]-ethanone]",morphological change,[1],"exhibited membrane blebbing, detached from plate"
same,nuclei condensation or fragmentation (Hoechst 33258),LNCaP cells [2],Nuclei condensation of fragmentation was observed
same,LNCaP cell viability (MTT),LNCaP cells [3],dose dependent reduction
same,invasion activity,[4],showed inhibitory activity
same,inhibit eosinophil chemotaxis,eosinophil,80%
same,"cell viability (MTT), Panc-1",Panc-1 cells,diminished cell viability in dose-dependent manner
same,"cell viability (MTT), AsPC-3 as printed",AsPC-1 cells,diminished cell viability in dose-dependent manner

# Reference: patent US8518889B2, “Method of treating cancer with antibodies against long-form leukotriene B4 receptor BLT2” (Korea University Research & Business Foundation, priority 2007, dated 2013)
